According to patent US8273775B2, “Non-steroidal brassinosteroid mimetic” (priority 2006, dated 2012):

Legend:
[1] = test system: cpd, det2-1, bri1-116 and bri1-301 mutants; test: Hypocotyl-elongation assay of dark-grown BR mutants; assay type: in vivo, Arabidopsis thaliana; settings: grown in the dark, 50 μM abrasin
Protocol: FIG. 6: Rescue of dark-grown BL mutants after treatment with 50 μM of abrasin (I5).
(§1) For further phenotypical analysis, all plants were grown on vertically oriented square plates (Greiner Labortechnik, Austria) with solid medium derived from standard Murashige and Skoog medium under the same conditions. For the hypocotyl-elongation assay, plants were grown in the dark at 22° C. under the same conditions.

[2] = test system: Arabidopsis thaliana seedlings; test: Lateral root formation / root elongation of seedlings on agar plates; assay type: in vivo; settings: Arabidopsis thaliana; read-out: root elongation and lateral root development inhibited, EC50-value
Protocol: FIG. 3: (A) Phenotypic characterization. WT plants were grown under standard conditions on agar plates. […] Left panel: control plant. Middle panel: abrasin treated plant. Right panel: BL treated plant. (B) Dose response measurements of abrasin using lateral root formation as an indicator of brassinosteroid like activity. Error bars represent standard error of the mean. […] Osram) at 22° C. Three days after germination compounds were added to the 96-well plates at a final concentration of 50 μM. Plants were screened six days after germination for brassinosteroid-related phenotypes. For further phenotypical analysis, all plants were grown on vertically oriented square plates (Greiner Labortechnik, Austria) with solid medium derived from standard Murashige and Skoog medium under the same conditions. For the hypocotyl-elongation assay, plants were grown in the dark at 22° C. under the same conditions.

[3] = test system: group I GSK-3 kinases (ASKs); test: ASK kinase assay with MBP as substrate, group I; assay type: biochemical, Arabidopsis; settings: 10 μM abrasin
Protocol: (§2) Coomassie staining was used as a loading control. b, Autoradiography of kinase assays with nine ASKs with MBP as a substrate in the presence or absence of 10 μM abrasin. The second member of group IV, ASKκ, had no kinase activity and was not included in the analysis. c, Autoradiography of kinase assays with AtMPK4, AtMPK6 and MBP as a substrate (left) and with AtAUR1 kinase and histone H3 as a substrate (right) in the presence or absence of 10 μM abrasin.
(§3) For in vitro kinase assays, MBP, MBP-BES1, and MBP-bes1 (20 ng each) were incubated with GST-BIN2 or GST-BRI1 kinase (200 ng each) in 20 μl of kinase buffer (20 mM Tris [pH 7.5], 100 mM NaCl, and 12 mM MgCl2) and 10 μCi ^32P-γATP. After incubation at 37° C. for 40 min, the reactions were stopped by adding 20 μl of 2×SDS buffer and boiling at 94° C. for 5 min. Proteins were resolved by a PAGE gel and phosphorylation was detected by exposing the dried gel to X-ray film. […]
(§4) Besides BIN2, nine additional GSK-3 kinases (also designated ASKs for Arabidopsis SHAGGY-related kinases) divided into four subgroups (I-IV) have been identified in Arabidopsis (Jonak and Hirt, 2002; Yoo et al. 2006). To determine the specificity of abrasin, its effect on the kinase activity of all ASKs was analyzed with myelin basic protein (MBP) as a general substrate. […]

[4] = test system: Arabidopsis thaliana seedlings; test: Chemical genetics screening for brassinosteroid-related phenotypes; assay type: in vivo; settings: young seedlings
Protocol: A commercial 10.000 compound library (DiverSet, ChemBridge, USA) was screened for brassinosteroid related phenotypes. Three to four Arabidopsis thaliana (L.) Heynh. seeds were sown in 96-well filterplates (Multiscreen HTS MSBVS1210, Millipore, USA) in liquid medium derived from standard Murashige and Skoog (MS) medium in a growth chamber under continuous light (110 μE.m^2. s^1 photosynthetically active radiation, supplied by cool-white fluorescent tungsten tubes; Osram) at 22° C. Three days after germination compounds were added to the 96-well plates at a final concentration of 50 μM. Plants were screened six days after germination for brassinosteroid-related phenotypes.
as §1

[5] = test system: BR-biosynthetic, BR signaling and BR-induced genes; test: Real time PCR of BR pathway genes; assay type: in vivo, Arabidopsis thaliana
Protocol: FIG. 7: Q-PCR analysis of genes involved in BR biosynthesis. WT Arabidopsis plants were treated with abrasin (indicated as I5) for 2 hours at a concentration of 30 μM and/or with CHX at a concentration of 30 μM and RNA was extracted from whole plants.
FIG. 8: A: Western Blot analysis of the BES1 protein in 35S:BES1:GFP plants treated with BL and abrasin (indicated as I5 throughout the figure) (A); MG132 with BL or abrasin (B); a time course with abrasin (C) and a concentration gradient with abrasin (D). B: Abrasin and BL induce similar transcriptional regulation of the BR pathway.
RNA was extracted with the RNeasy kit. Poly(dT) cDNA was prepared from […] of total RNA with Superscript III reverse transcriptase (Invitrogen) and quantified on an LightCycler 480 apparatus (Roche) with the SYBR Green I Master kit (Roche) according to the manufacturer's instructions. Target quantifications were performed with specific primer pairs designed with the Beacon Designer 4.0 (Premier Biosoft International). All PCRs were performed in triplicate.
The primers used to quantify gene expression levels were for BAS 1: 5′-[…]-3′ and 5′-[…]-3′; BR6Ox1: 5′-TGGCCAATCTTTGGCGAA-3′ and 5′-[…]-3′; BR6Ox2: 5′-[…]-3′ and 5′-[…]-3′; BRI1: 5′-[…]-3′ and 5′-[…]-3′; CPD: 5′-[…]-3′ and 5′-[…]-3′; DWF4: 5′-[…]-3′ and 5′-[…]-3′ ROT3: 5′-ATTGGCGCGTTCCTCAGAT-3′ and 5′-[…]-3′; BES1: 5′-[…]-3′ and 5′-[…]-3′; BIN2: 5′-[…]-3′ and 5′-[…]-3′; BSU 1: 5′-[…]-3′ and 5′-[…]-3′; BZR1: 5′-[…]-3′ and 5′-[…]-3′; CDKA1; 1: 5′-[…]-3′ and 5′-[…]-3′; EEF1α: 5′-[…]-3′ and 5′-[…]-3′; BKI1: 5′-GCTCCGGCGTCGATGA-3′ and 5′-[…]-3′.

[6] = test system: group II GSK-3 kinases (ASKs) including BIN2; test: ASK kinase assay with MBP as substrate, group II; assay type: biochemical, Arabidopsis; settings: 10 μM abrasin
Protocol: as §2, §3, §4

O=C(O)CCC(=O)Nc1ccc(Br)cn1 [abrasin, 4-[(5-bromo-2-pyridinyl)amino]-4-oxobutanoic acid] was tested, and the “hypocotyl length of dark-grown mutants” value [1] was “all mutant lines had hypocotyls of normal length”, the EC50 [2] was 20 µM and the residual activity [3] was 6-8%. The “elongation of leaves, petioles and the hypocotyl” value [4] was “strongly induced elongation of leaves, petioles and the hypocotyl in a dosage-dependent manner”, the “expression of genes downstream of the BRI1 receptor” value ([5]; 30 μM, 2 hours) was “all genes are upregulated” and the “expression of genes involved in biosynthesis and perception” value ([5]; 30 μM, 2 hours) was “regulated in the same way as a BL-treatment”. The “RNA levels of BR biosynthetic, signaling and BR-induced genes” value ([5]; 3-day-old seedlings, Abrasin 30 μM, 6 hours, compared to BL 1 μM) was “the expression profiles resembled closely those of BL treatment” and the residual activity [6] was 1-2.
